What all share (assay): Kinase panel study
Common to all, as to type: biochemical
What all share (conditions): read-out: Percentage of inhibition; for inhibition at 1 µM: 1000nM; for inhibition at 10 µM: 10000nM

Test [1] deals with T1, PIK3CA E542K/PIK3R1 (p11 0 alpha E542K/p85 alpha) (Homo sapiens, UniProt P42336, E542K).
T1 construct: purchased Thermo Fisher Scientific
In a few lines: (§1)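 Inhibition was measured in an outsourced in vitro kinase panel using the ZLyte or Adapta format under the provider's standard procedures. Values are percent inhibition at 10 µM or 1 µM compound, and IC50s were also obtained.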

The target in a further test is T2, EPHB3 (Homo sapiens, UniProt P54753).
T2 construct: purchased Thermo Fisher Scientific
T2 sequence (P54753 34-998): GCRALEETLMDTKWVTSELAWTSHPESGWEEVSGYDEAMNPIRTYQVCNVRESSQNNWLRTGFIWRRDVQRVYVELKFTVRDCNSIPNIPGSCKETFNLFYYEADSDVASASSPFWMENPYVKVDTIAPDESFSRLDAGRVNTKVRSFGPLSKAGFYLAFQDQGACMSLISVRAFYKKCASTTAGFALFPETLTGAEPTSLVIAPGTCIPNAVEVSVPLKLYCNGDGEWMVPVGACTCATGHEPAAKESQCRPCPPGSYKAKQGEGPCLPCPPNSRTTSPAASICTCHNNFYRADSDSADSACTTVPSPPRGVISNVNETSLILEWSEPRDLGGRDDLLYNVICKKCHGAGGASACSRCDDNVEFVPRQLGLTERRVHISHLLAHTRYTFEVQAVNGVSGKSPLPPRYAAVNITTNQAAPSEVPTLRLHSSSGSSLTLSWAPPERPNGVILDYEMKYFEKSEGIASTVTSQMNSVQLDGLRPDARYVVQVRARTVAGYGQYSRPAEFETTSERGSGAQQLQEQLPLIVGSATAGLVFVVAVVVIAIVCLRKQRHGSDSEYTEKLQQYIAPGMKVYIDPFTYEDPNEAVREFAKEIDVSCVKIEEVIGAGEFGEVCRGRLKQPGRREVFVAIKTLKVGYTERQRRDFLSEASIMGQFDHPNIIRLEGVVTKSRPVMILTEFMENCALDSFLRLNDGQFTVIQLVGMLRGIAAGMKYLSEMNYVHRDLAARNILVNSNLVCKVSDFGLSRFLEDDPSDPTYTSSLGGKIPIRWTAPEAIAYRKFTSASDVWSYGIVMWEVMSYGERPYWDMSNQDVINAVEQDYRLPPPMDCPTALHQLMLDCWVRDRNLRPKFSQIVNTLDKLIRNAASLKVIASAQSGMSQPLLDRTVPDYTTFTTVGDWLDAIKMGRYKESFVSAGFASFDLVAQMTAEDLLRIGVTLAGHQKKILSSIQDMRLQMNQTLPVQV
In a few lines: as §1

In another test the target is T3, PRKD1 (PKC mu) (Homo sapiens, UniProt Q15139).
T3 construct: purchased Thermo Fisher Scientific
T3 sequence (Q15139 1-912): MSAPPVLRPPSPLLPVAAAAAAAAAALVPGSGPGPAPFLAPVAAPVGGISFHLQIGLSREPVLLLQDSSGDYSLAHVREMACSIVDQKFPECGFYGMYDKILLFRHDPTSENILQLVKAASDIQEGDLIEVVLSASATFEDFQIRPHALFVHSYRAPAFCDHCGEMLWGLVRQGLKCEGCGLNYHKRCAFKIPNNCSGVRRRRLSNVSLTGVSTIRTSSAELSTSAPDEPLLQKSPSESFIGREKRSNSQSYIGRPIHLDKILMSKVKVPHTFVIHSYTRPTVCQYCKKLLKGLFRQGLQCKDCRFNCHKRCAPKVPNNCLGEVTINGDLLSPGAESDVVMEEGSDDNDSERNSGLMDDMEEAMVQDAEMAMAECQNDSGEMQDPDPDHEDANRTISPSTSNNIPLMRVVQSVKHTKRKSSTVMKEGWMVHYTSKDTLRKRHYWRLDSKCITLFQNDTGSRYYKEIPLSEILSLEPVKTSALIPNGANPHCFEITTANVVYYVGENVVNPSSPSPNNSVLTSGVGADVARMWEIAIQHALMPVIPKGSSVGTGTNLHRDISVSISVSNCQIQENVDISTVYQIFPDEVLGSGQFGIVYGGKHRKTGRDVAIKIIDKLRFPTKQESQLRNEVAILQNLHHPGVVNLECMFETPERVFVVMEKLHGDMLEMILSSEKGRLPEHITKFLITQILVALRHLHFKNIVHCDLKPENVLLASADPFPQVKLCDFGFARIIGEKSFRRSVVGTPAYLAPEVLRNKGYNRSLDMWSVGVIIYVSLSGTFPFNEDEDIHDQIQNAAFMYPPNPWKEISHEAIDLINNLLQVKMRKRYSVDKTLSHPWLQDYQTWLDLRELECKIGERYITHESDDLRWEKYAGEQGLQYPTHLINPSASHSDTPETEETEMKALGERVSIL
An outline of the steps:
as §1

In the next test the target is T4, PRKCD (PKC delta) (Homo sapiens, UniProt Q05655).
T4 construct: purchased Thermo Fisher Scientific
T4 sequence (Q05655 whole entry): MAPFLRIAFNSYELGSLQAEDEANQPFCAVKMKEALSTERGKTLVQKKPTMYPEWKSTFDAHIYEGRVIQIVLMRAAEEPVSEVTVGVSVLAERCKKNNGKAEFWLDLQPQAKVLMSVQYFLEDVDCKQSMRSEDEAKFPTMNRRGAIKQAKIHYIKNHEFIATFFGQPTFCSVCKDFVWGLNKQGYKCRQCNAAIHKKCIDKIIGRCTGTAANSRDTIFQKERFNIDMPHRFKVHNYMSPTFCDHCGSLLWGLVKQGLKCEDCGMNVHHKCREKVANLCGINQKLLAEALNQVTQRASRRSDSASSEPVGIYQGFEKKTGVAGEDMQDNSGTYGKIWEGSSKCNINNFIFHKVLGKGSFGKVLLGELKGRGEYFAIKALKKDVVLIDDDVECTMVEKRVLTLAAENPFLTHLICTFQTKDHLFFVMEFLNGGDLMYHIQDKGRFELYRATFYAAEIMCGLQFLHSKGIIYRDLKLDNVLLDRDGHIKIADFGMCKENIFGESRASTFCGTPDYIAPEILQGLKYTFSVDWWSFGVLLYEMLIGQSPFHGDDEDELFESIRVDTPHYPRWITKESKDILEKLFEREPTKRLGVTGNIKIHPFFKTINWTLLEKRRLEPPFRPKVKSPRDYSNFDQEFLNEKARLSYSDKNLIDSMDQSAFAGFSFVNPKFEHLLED
In a few lines:
as §1

Another test has as its target T5, SNF1LK2 (Homo sapiens, UniProt Q9H0K1).
T5 construct: purchased Thermo Fisher Scientific
An outline of the steps:
as §1

The record followed here is EP4467141A1, “PYRAZOLO-QUINOLINES AS SELECTIVE INHIBITORS OF GENOTOXIC STRESS-INDUCED IKK/NF- KB PATHWAYS FOR CANCER THERAPY” (Max-Delbrück-Centrum für Molekulare Medizin in der …, priority 2023, dated 2024).

T1 sequence (P42336 whole entry E542K): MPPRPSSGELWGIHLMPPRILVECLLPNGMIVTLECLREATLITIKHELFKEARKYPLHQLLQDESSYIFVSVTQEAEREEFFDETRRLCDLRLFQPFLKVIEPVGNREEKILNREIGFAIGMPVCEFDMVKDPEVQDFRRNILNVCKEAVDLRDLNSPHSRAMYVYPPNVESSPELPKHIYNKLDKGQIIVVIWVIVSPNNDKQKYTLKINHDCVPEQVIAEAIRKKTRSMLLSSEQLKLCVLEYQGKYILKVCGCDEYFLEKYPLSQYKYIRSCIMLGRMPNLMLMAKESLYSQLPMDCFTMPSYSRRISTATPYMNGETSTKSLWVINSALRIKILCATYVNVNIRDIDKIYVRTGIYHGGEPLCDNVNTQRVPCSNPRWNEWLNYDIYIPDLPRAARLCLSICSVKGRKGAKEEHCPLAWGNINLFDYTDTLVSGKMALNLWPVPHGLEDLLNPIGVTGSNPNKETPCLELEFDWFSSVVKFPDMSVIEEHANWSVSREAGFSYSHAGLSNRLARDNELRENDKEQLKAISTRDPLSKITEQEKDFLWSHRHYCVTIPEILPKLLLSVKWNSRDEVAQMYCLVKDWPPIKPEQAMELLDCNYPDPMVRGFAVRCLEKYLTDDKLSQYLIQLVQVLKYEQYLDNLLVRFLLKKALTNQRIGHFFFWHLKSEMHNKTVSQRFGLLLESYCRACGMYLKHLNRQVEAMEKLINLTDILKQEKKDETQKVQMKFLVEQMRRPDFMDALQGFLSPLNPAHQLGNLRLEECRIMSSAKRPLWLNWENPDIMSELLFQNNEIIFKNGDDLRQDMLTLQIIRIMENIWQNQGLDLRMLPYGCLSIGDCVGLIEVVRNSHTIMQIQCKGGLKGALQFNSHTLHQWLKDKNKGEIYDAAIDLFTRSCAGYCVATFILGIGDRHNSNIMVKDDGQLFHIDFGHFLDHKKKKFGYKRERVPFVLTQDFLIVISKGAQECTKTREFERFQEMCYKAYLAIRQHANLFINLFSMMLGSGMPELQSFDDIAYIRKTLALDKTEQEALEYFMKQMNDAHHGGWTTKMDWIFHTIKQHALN
T1 sequence (P27986 whole entry partner): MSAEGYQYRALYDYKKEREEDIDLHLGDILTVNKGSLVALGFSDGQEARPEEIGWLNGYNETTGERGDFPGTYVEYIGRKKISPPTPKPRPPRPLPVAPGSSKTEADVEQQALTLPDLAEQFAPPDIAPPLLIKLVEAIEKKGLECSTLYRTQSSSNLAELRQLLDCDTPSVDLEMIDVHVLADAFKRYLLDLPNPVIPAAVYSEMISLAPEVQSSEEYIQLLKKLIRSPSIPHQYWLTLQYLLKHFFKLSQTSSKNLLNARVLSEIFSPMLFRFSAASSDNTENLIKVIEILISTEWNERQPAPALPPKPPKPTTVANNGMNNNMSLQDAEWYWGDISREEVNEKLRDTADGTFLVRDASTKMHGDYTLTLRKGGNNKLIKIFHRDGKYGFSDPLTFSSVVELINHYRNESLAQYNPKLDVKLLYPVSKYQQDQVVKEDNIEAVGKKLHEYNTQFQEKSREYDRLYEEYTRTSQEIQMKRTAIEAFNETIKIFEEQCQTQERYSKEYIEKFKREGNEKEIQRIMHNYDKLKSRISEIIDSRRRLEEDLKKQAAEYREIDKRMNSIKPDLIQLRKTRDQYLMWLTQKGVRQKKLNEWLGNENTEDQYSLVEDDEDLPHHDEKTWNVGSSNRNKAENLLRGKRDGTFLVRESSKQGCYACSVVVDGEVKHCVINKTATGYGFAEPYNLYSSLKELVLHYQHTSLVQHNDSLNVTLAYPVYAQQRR
T5 sequence (Q9H0K1 whole entry): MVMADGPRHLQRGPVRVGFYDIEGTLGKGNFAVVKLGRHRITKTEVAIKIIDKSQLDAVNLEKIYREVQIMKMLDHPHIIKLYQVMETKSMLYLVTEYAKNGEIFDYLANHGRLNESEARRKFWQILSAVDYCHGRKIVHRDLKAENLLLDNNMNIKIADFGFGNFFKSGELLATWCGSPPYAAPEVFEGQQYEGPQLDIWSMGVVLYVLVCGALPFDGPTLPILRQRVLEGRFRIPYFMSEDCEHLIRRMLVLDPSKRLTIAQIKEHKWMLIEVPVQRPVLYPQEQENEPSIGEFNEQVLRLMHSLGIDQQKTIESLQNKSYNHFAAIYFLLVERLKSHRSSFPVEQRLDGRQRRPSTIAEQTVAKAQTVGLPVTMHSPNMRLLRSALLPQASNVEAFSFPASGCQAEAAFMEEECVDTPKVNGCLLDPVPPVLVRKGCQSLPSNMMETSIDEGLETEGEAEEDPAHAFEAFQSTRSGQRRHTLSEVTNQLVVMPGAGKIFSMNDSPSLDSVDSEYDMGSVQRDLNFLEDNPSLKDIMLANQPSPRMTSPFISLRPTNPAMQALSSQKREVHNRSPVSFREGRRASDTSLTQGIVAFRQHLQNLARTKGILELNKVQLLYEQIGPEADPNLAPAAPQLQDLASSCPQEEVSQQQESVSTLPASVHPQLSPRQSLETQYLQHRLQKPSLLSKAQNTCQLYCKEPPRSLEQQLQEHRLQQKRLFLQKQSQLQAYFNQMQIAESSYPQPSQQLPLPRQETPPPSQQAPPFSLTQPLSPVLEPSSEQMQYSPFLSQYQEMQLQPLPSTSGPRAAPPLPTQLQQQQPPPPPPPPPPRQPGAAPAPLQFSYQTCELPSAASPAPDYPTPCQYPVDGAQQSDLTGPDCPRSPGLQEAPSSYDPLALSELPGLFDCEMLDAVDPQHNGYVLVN

For the molecule `COc1ccc2c(c1OC)c(=O)n1c3ccc(O)cc3c3ccnc2c31` [MW01, 5-Hydroxy-10,11-dimethoxy-9H-benzo[c]indolo[3,2,1-ij][1,5]naphthyridin-9-one], the inhibition at 1 µM came out at 94% in test [1]; 1% on EPHB3; 28% at PRKD1 (PKC mu); 6% on PRKCD (PKC delta); 5% on SNF1LK2. Besides, the inhibition at 10 µM in test [1] is 96%; on EPHB3, 11%; on PRKD1 (PKC mu), 49%; on PRKCD (PKC delta), 17%; at SNF1LK2, 12%.

In the case of `COc1ccc2cc3c(N)nn(C(=O)c4cccc(N(C)C)c4)c3nc2c1` [MW05, (3-Amino-7-methoxypyrazolo[3,4-b]quinolin-1-yl)-[3-(dimethylamino)phenyl]methanone], the inhibition at 1 µM in test [1] came out at 22%; at EPHB3 it was 6%; on PRKD1 (PKC mu), 5%; at PRKCD (PKC delta) it was 14%; on SNF1LK2 it was 4%. Besides, the inhibition at 10 µM in test [1] was 68%; on EPHB3, 5%; on PRKD1 (PKC mu), 9%; on PRKCD (PKC delta), 0%; on SNF1LK2 it was -2%.
